From patent US20070154449A1, “TIGHT JUNCTION MODULATING PEPTIDES FOR ENHANCED MUCOSAL DELIVERY OF THERAPEUTIC COMPOUNDS” (Nastech Pharmaceutical Company Inc., priority 2005, published 2007)

What was measured:
[1] = Intranasal PYY(3-36) pharmacokinetics in rabbits with various TJMPs (Example 10); type: in vivo, New Zealand White rabbits; settings: rabbit
Description: The tubes were chilled until […].

[2] = Intranasal PYY pharmacokinetics in rabbits with PN159 or small molecule enhancers (Example 5); type: in vivo, New Zealand White rabbits; settings: for PYY plasma concentration: mean of 4 rabbits; for AUCINF (Mean) / AUClast (Mean) / Cmax (Mean) / Tmax (Mean) / t½ (Mean): PYY in plasma, rabbit; for Relative AUC last / Relative Cmax: PYY, rabbit intranasal
Experimental: Twenty male New Zealand White rabbits age 3-6 months and weighing 2.1-3.0 kg were randomly assigned into one of 5 treatment groups with four animals per group. Test animals were dosed at 15 μl/kg and intranasally via pipette. Table 6 below indicates the composition of five different dose groups.
For dosing group 1 (see Table 6) a clinical formulation of PYY including small molecule permeation enhancers was used. The small molecule enhancers in these studies included methyl-β-cyclodextrin, phosphatidylcholine didecanoyl (DDPC), and/or EDTA. Dosing group 2 received PYY dissolved in phosphate buffered saline (PBS). For dosing groups 3-5, various concentrations of PN159 were added to dosing group 2, so that each of dosing groups 3 to 5 consisted of PYY, PN159, and PBS.
Serial blood samples (about 2 ml each) were collected by direct venipuncture from a marginal ear vein into blood collection tubes containing EDTA as an anticoagulant. Blood samples were collected at 0, 2.5, 5, 10, 15, 30, 45, 60, and 120 minutes post-dosing. After collection of the blood, the tubes were gently rocked several times for anti-coagulation, and then 50 μl aprotinin solution was added. The blood was centrifuged at approximately 1,600×g for 15 minutes at approximately 4° C., and plasma samples were dispensed into duplicate aliquots and stored frozen at approximately −70° C.

[3] = PYY(3-36) in plasma, 205 μg/kg intranasal with the named TJMP (concentration per Table 11, 50-1000 μM) or PBS, mean
[4] = Group 3: PYY 205 μg/kg intranasal with 25 μM PN159
[5] = Group 4: PYY 205 μg/kg intranasal with 50 μM PN159
[6] = Group 5: PYY 205 μg/kg intranasal with 100 μM PN159
[7] = Group 3 (PN159, 25 μm) compared with Group 2 (no enhancer)
[8] = Group 4 (PN159, 50 μm) compared with Group 2 (no enhancer)
[9] = Group 5 (PN159, 100 μm) compared with Group 2 (no enhancer)

CC(C)C[C@H](NC(=O)[C@H](C)NC(=O)[C@H](CCCCN)NC(=O)[C@H](CC(C)C)NC(=O)[C@H](C)NC(=O)[C@H](CC(C)C)NC(=O)[C@H](CCCCN)NC(=O)[C@H](CC(C)C)NC(=O)[C@H](C)NC(=O)[C@H](CC(C)C)NC(=O)[C@@H](N)CCCCN)C(=O)N[C@@H](CCCCN)C(=O)N[C@@H](C)C(=O)N[C@@H](C)C(=O)N[C@@H](CC(C)C)C(=O)N[C@@H](CCCCN)C(=O)N[C@@H](CC(C)C)C(=O)N[C@@H](C)C(N)=O [PN159]
In Vivo Tier Ranking ([1]; PYY(3-36) 205 μg/kg intranasal, TJMP concentration per Table 11: PN159 50 μM, PN161, PN202 100 μM, PN27 250 μM, PN58, PN73, PN228 500 μM, PN183, PN556 1000 μM): I | AUCinf [1, 3]: 1.55e+06 pg·min/mL | AUClast [1, 3]: 1.52e+06 pg·min/mL | Cmax [1, 3]: 30.2 ng/mL | T1/2 [1, 3]: 30.2 min | Tmax [1, 3]: 17.0a min | PYY plasma concentration ([2]; Group 3: PYY 205 μg/kg intranasal with 25 μM PN159, 0 min): 228.675 | PYY plasma concentration ([2]; Group 3: PYY 205 μg/kg intranasal with 25 μM PN159, 2.5 min): 526.375 | PYY plasma concentration ([2]; Group 3: PYY 205 μg/kg intranasal with 25 μM PN159, 5 min): 1430.15 | PYY plasma concentration ([2]; Group 3: PYY 205 μg/kg intranasal with 25 μM PN159, 10 min): 6521.7 | PYY plasma concentration ([2]; Group 3: PYY 205 μg/kg intranasal with 25 μM PN159, 15 min): 12563.075 | PYY plasma concentration ([2]; Group 3: PYY 205 μg/kg intranasal with 25 μM PN159, 30 min): 15222.6 | PYY plasma concentration ([2]; Group 3: PYY 205 μg/kg intranasal with 25 μM PN159, 45 min): 9081.125 | PYY plasma concentration ([2]; Group 3: PYY 205 μg/kg intranasal with 25 μM PN159, 60 min): 4843.15 | PYY plasma concentration ([2]; Group 3: PYY 205 μg/kg intranasal with 25 μM PN159, 120 min): 1224.2 | PYY plasma concentration ([2]; Group 4: PYY 205 μg/kg intranasal with 50 μM PN159, 0 min): 424.4 | PYY plasma concentration ([2]; Group 4: PYY 205 μg/kg intranasal with 50 μM PN159, 2.5 min): 749.975 | PYY plasma concentration ([2]; Group 4: PYY 205 μg/kg intranasal with 50 μM PN159, 5 min): 1293.4 | PYY plasma concentration ([2]; Group 4: PYY 205 μg/kg intranasal with 50 μM PN159, 10 min): 12517.2 | PYY plasma concentration ([2]; Group 4: PYY 205 μg/kg intranasal with 50 μM PN159, 15 min): 34455.3 | PYY plasma concentration ([2]; Group 4: PYY 205 μg/kg intranasal with 50 μM PN159, 30 min): 35294.375 | PYY plasma concentration ([2]; Group 4: PYY 205 μg/kg intranasal with 50 μM PN159, 45 min): 21582.225 | PYY plasma concentration ([2]; Group 4: PYY 205 μg/kg intranasal with 50 μM PN159, 60 min): 9461.925 | PYY plasma concentration ([2]; Group 4: PYY 205 μg/kg intranasal with 50 μM PN159, 120 min): 2337.775 | PYY plasma concentration ([2]; Group 5: PYY 205 μg/kg intranasal with 100 μM PN159, 0 min): 294.225 | PYY plasma concentration ([2]; Group 5: PYY 205 μg/kg intranasal with 100 μM PN159, 2.5 min): 1748.225 | PYY plasma concentration ([2]; Group 5: PYY 205 μg/kg intranasal with 100 μM PN159, 5 min): 3088.2 | PYY plasma concentration ([2]; Group 5: PYY 205 μg/kg intranasal with 100 μM PN159, 10 min): 14486.6 | PYY plasma concentration ([2]; Group 5: PYY 205 μg/kg intranasal with 100 μM PN159, 15 min): 20882.725 | PYY plasma concentration ([2]; Group 5: PYY 205 μg/kg intranasal with 100 μM PN159, 30 min): 25470.475 | PYY plasma concentration ([2]; Group 5: PYY 205 μg/kg intranasal with 100 μM PN159, 45 min): 16499.55 | PYY plasma concentration ([2]; Group 5: PYY 205 μg/kg intranasal with 100 μM PN159, 60 min): 10676.625 | PYY plasma concentration ([2]; Group 5: PYY 205 μg/kg intranasal with 100 μM PN159, 120 min): 1891.275 | AUCINF (Mean) [2, 4]: 796354.7 pg·min/mL | AUClast (Mean) [2, 4]: 748104.1 pg·min/mL | Cmax (Mean) [2, 4]: 15.53395 ng/mL | Tmax (Mean) [2, 4]: 22.5 min | t½ (Mean) [2, 4]: 24.8467 min | AUCINF (Mean) [2, 5]: 1787348 pg·min/mL | AUClast (Mean) [2, 5]: 1692499 pg·min/mL | Cmax (Mean) [2, 5]: 40.99553 ng/mL | Tmax (Mean) [2, 5]: 26.25 min | t½ (Mean) [2, 5]: 25.5355 min | AUCINF (Mean) [2, 6]: 1518949 pg·min/mL | AUClast (Mean) [2, 6]: 1384241 pg·min/mL | Cmax (Mean) [2, 6]: 27.9744 ng/mL | Tmax (Mean) [2, 6]: 33.75 min | t½ (Mean) [2, 6]: 20.4628 min | Relative AUC last [2, 7]: 21× | Relative Cmax [2, 7]: 30× | Relative AUC last [2, 8]: 46× | Relative Cmax [2, 8]: 79× | Relative AUC last [2, 9]: 38× | Relative Cmax [2, 9]: 54×
